This is an account of results in patent publication US20240400564A1 (Syndax Pharmaceuticals, Inc, priority 2021, published 2024).

For this assay, the system named is MLLr leukemia cell line MV4-11. The experiment in a line: Cell proliferation assay MV4;11 (CellTiter-Glo, 72 hours). Type of assay: cell-based. Conditions: Homo sapiens; MV4-11 cells, 72 hours, CellTiter-Glo; read-out: MV4; 11 IC50. The protocol: Compounds were evaluated for its capacity to inhibit the proliferation of the MLLr leukemia cell line MV4-11 that harbors an MLL1-AF4 fusion protein. MV4-11 cells were cultured for 72 hours with limiting dilutions of compounds and viability was measured using CellTiter-Glo.
Compounds were dissolved to obtain as 10 mM solution in DMSO. The stock was diluted 1:5 to the top concentration of 2 mM in 100% DMSO. For IC50 determination, serial 1:3.16 dilutions were prepared in 100% DMSO by diluting 20 μL into 43.5 μL of DMSO for 8 concentrations. Each prepared DMSO solution were further diluted 1:500 in the cell culture media to obtain the 2× dosing solutions. The final concentrations of tested compounds in the cell culture media ranged from 0.632 nM to 2000 nM.
MV4-11 cells were cultured in IMDM with 10% FBS and 1× Penicillin-Streptomycin at 5% CO2 and 37° C. A cell suspension was prepared containing 15,000 cells/ml in the culture medium and 100 μL of this suspension was added per well to a 96-well cell culture plate. Then, 100 μL of 2× dosing media containing test compounds were added bringing the total volume to 200 μL. These cells were cultured for 72 hours at 37° C. and 5% CO2 in a humidified incubator.
After 72 hours, the cultured cells were mixed and 100 μL was transferred to a 96-well black plate. Cell Titer Glo (100 μl) was then added to this plate. The plate was mixed with shaking for 15 mins at RT, the luminescence was then measured using Tecan Spark 20M spectrophotometer. Cell Viability (%) was determined by RLU of test/RLU average vehicle control*100 and % max inhibition was determined by 100−(% cell viability remaining at the top concentration of compound).
(In ATP-based viability assays light output follows the ATP content of the culture.)
For the molecule `CC(C)N(C(=O)c1cc(F)ccc1Oc1cncnc1N1CC2(CCN(C[C@@H]3CC[C@@H](NS(C)(=O)=O)CO3)CC2)C1)C1CC(F)(F)C1` [Example 112, N-(3,3-Difluorocyclobutyl)-5-fluoro-N-isopropyl-2-((4-(7-(((2S,5R)-5-(methylsulfonamido)tetrahydro-2H-pyran-2-yl)methyl)-2,7-diazaspiro[3.5]nonan-2-2-yl)pyrimidin-5-yl)oxy)benzamide], the IC50 is < 100 nM. As for `Cc1nc(S(=O)(=O)N[C@@H]2CC[C@@H](CN3CCC4(CC3)CN(c3ncncc3Oc3ccc(F)cc3C(=O)N(C(C)C)[C@@H]3CCOC3)C4)OC2)cs1` [Example 133, 5-Fluoro-N-isopropyl-2-((4-(7-(((2S,5R)-5-((2-methylthiazole)-4-sulfonamido)tetrahydro-2H-pyran-2-yl)methyl)-2,7-diazaspiro[3.5]nonan-2-yl)pyrimidin-5-yl)oxy)-N-((R)-tetrahydrofuran-3-yl)benzamide], the IC50 is < 100 nM.

Turning to `Cc1nc(S(=O)(=O)N[C@@H]2CC[C@@H](CN3CCC4(CC3)CN(c3ncncc3Oc3ccc(F)cc3C(=O)N(C(C)C)[C@H]3CCOC3)C4)OC2)cs1` [Example 135, 5-Fluoro-N-isopropyl-2-((4-(7-(((2S,5R)-5-((2-methylthiazole)-4-sulfonamido)tetrahydro-21H-pyran-2-yl)methyl)-2,7-diazaspiro[3.5]nonan-2-yl)pyrimidin-5-yl)oxy)-N-((S)-tetrahydrofuran-3-yl)benzamide], the IC50 was < 100 nM.

For the molecule `CC(C)N(C)C(=O)c1cc(F)ccc1Oc1cncnc1N1CC2(CCN(C[C@@H]3CC[C@@H](NS(=O)(=O)c4cnn(C)c4)CO3)CC2)C1` [Example 139, 5-Fluoro-N-isopropyl-N-methyl-2-((4-(7-(((2S,5R)-5-((1-methyl-1H-pyrazole)-4-sulfonamido)tetrahydro-2H-pyran-2-yl)methyl)-2,7-diazaspiro[3.5]nonan-2-yl)pyrimidin-5-yl)oxy)benzamide], the IC50 was 100 to 1000 nM.

Take `CC(C)N(CC(F)F)C(=O)c1cc(F)ccc1Oc1nncnc1N1CC2(CCN(C[C@@H]3CC[C@@H](NS(=O)(=O)c4cnn(C)c4)CO3)CC2)C1` [Example 187, N-(2,2-Difluoroethyl)-5-fluoro-N-isopropyl-2-((5-(7-(((2S,5R)-5-((1-methyl-1H-pyrazole)-4-sulfonamido)tetrahydro-2H-pyran-2-yl)methyl)-2,7-diazaspiro[3.5]nonan-2-yl)-1,2,4-triazin-6-yl)oxy)benzamide]: the IC50 was < 100 nM.

With `CC(C)N(CC(F)(F)F)C(=O)c1cc(F)ccc1Oc1nncnc1N1CC2(CCN(C[C@@H]3CC[C@@H](NS(=O)(=O)c4cnn(C)c4)CO3)CC2)C1` [Example 192, 5-Fluoro-N-isopropyl-2-((5-(7-(((2R,5S)-5-((1-methyl-1H-pyrazole)-4-sulfonamido)tetrahydro-2H-pyran-2-yl)methyl)-2,7-diazaspiro[3.5]nonan-2-yl)-1,2,4-triazin-6-yl)oxy)-N-(2,2,2-trifluoroethyl)benzamide], the IC50 is < 100 nM. In the case of `CC(C)N(C(=O)c1cc(F)ccc1Oc1nncnc1N1CC2(CCN(C[C@@H]3CC[C@@H](NS(=O)(=O)c4cnn(C)c4)CO3)CC2)C1)C(C)C` [Example 197, 5-Fluoro-N,N-diisopropyl-2-((5-(7-(((2S,5R)-5-((1-methyl-1H-pyrazole)-4-sulfonamido)tetrahydro-2H-pyran-2-yl)methyl)-2,7-diazaspiro[3.5]nonan-2-yl)-1,2,4-triazin-6-yl)oxy)benzamide] it was < 100 nM. Regarding `CC(C)N(C(=O)c1cc(F)ccc1Oc1cncnc1N1CC2(CCN(C[C@@H]3CC[C@@H](NS(=O)(=O)N4CCC[C@H]4C)CO3)CC2)C1)[C@@H]1CCOC1` [Example 204, 5-Fluoro-N-isopropyl-2-((4-(7-(((2S,5R)-5-(((R)-2-methylpyrrolidine)-1-sulfonamido)tetrahydro-2H-pyran-2-yl)methyl)-2,7-diazaspiro[3.5]nonan-2-yl)pyrimidin-5-yl)oxy)-N-((R)-tetrahydrofuran-3-yl)benzamide], the IC50 was < 100 nM. For `CC(C)N(C(=O)c1cc(F)ccc1Oc1cncnc1N1CC2(CCN(C[C@@H]3CC[C@@H](NS(=O)(=O)N4CCC[C@@H]4C)CO3)CC2)C1)[C@@H]1CCOC1` [Example 205, 5-Fluoro-N-isopropyl-2-((4-(7-(((2S,5R)-5-(((S)-2-methylpyrrolidine)-1-sulfonamido)tetrahydro-2H-pyran-2-yl)methyl)-2,7-diazaspiro[3.5]nonan-2-yl)pyrimidin-5-yl)oxy)-N-((R)-tetrahydrofuran-3-yl)benzamide] the value was < 100 nM; for `CC(C)N(C(=O)c1cc(F)ccc1Oc1cncnc1N1CC2(CCN(C[C@@H]3CC[C@@H](NS(=O)(=O)N4CCC[C@@H]4C)CO3)CC2)C1)C1CCOC1` (stereo partly drawn) [Example 206, 5-Fluoro-N-isopropyl-2-((4-(7-(((2S,5R)-5-(((S)-2-methylpyrrolidine)-1-sulfonamido)tetrahydro-2H-pyran-2-yl)methyl)-2,7-diazaspiro[3.5]nonan-2-yl)pyrimidin-5-yl)oxy)-N-((S)-tetrahydrofuran-3-yl)benzamide], < 100 nM; for `CC(C)N(C(=O)c1cc(F)ccc1Oc1cncnc1N1CC2(CCN(C[C@@H]3CC[C@@H](NS(=O)(=O)N4CCC[C@H]4C)CO3)CC2)C1)C1CCOC1` (stereo partly drawn) [Example 207, 5-Fluoro-N-isopropyl-2-((4-(7-(((2S,5R)-5-(((R)-2-methylpyrrolidine)-1-sulfonamido)tetrahydro-2H-pyran-2-yl)methyl)-2,7-diazaspiro[3.5]nonan-2-yl)pyrimidin-5-yl)oxy)-N-((S)-tetrahydrofuran-3-yl)benzamide], < 100 nM. As to `COC[C@H]1CCCN1S(=O)(=O)N[C@@H]1CC[C@@H](CN2CCC3(CC2)CN(c2ncncc2Oc2ccc(F)cc2C(=O)N(C(C)C)C(C)C)C3)OC1` [Example 212, 5-Fluoro-N,N-diisopropyl-2-((4-(7-(((2S,5R)-5-(((R)-2-(methoxymethyl)pyrrolidine)-1-sulfonamido)tetrahydro-2H-pyran-2-yl)methyl)-2,7-diazaspiro[3.5]nonan-2-yl)pyrimidin-5-yl)oxy)benzamide], the IC50 was < 100 nM. In the case of `COC[C@@H]1CCCN1S(=O)(=O)N[C@@H]1CC[C@@H](CN2CCC3(CC2)CN(c2ncncc2Oc2ccc(F)cc2C(=O)N(C(C)C)C(C)C)C3)OC1` [Example 213, 5-Fluoro-N,N-diisopropyl-2-((4-(7-(((2S,5R)-5-(((S)-2-(methoxymethyl)pyrrolidine)-1-sulfonamido)tetrahydro-2H-pyran-2-yl)methyl)-2,7-diazaspiro[3.5]nonan-2-yl)pyrimidin-5-yl)oxy)benzamide] it was < 100 nM; in that of `CN=S(=O)(N[C@@H]1CC[C@@H](CN2CCC3(CC2)CN(c2ncncc2Oc2ccc(F)cc2C(=O)N(C(C)C)C(C)C)C3)OC1)c1ccccc1` (stereo partly drawn) [Example 232, 5-Fluoro-N,N-diisopropyl-2-((4-(7-(((2S,5R)-5-(N′-methylphenylsulfonoamidimidamido)tetrahydro-2H-pyran-2-yl)methyl)-2,7-diazaspiro[3.5]nonan-2-yl)pyrimidin-5-yl)oxy)benzamide], 100 to 1000 nM.
